Measured values taken from patent US11472807B2, “Purine derivatives for use as medicament and for use in treating neurodegenerative or neuro-inflammatory disorders” (COMMISSARIAT À L'ENERGIE ATOMIQUE ET AUX ENERGIES …, priority 2017, dated 2022).

Assays:
IL-6 cytokine = assay: Secreted IL-6 in LPS-treated human primary glial cells (MSD ELISA); assay type: cell-based; settings: LPS 6 h, then purine derivative 10 μM for 18 h
Description: For assessing the cytokine production, human primary glial cells were grown until confluent on coated collagen 12-well plates. Cells were serum-starved in glial serum-free medium for 2 h and treated with LPS for 6 h before treatment with purine derivatives (10 μM) for an additional 18 h. Supernatants were harvested and secreted IL-6 cytokine was measured by ELISA by the mean of the Meso Scale Discovery (MSD) technology. Briefly, a 96-well plate having 1 spot pre-coated with the corresponding antibody is provided by MSD Technology. Before adding the samples, a first saturation step is required. Once the plate is saturated and washed, 25 μL of sample (or calibrators) per well are loaded and incubated for 1 hour. Then the plate is washed and incubated with 25 μL of the Detection Antibody solution (MSD SULFO-TAG) for 1 hour. At the end of the incubation, the plate is washed and then a chemical solution (Read buffer 1×) is added allowing electrochemiluminescence. After a short incubation (5 min) at room temperature, the plate is read on the QUICK Plex SQ120. The instrument measures the intensity of the light electrochemiluminescence.

p-Tau (Thr212) = assay: p-Tau (Thr212)/total Tau in rat cortical neurons (western-blot); assay type: cell-based; settings: purine derivative 10 μM (A100), 18 h
Description: Cells were lysed in freshly prepared lysis buffer containing in mM: Tris-HCl 50, EDTA 2, EGTA 2, NaCl 100, SDS 0.2%, Triton X-100 1%, proteases inhibitors (Roche Protease Inhibitor Cocktail #04693116001), phosphatases inhibitors (in mM: ammonium molybdate 0.1, β-glycerophosphate 20, NaF 50, Na-pyrophosphate 10, Orthovanadate 1). Protein concentration was measured by the Bradford assay and Laemmli buffer was added to each lysate. Proteins (10 μg per lane) were resolved on 12% Nu-PAGE (LifeTechonoliges #NP0342BOX) using MOPS SDS running buffer and transferred on Immobilon-FL PVDF membrane (Millipore #IPFL00010). Membranes were blocked one hour in TBS Tween20 0.1% BSA 5% at room temperature. Primary antibodies were incubated O/N at 4° C. and detected by Alexa 488 conjugated secondary antibodies (Life Techonologies #A11034 and A11029) diluted 1:1.000 in TBS Tween20 0.05% and 1% BSA. The antibodies specific for pThr212-Tau (Abcam #ab4842), pThr181-Tau (AbCam #ab75679), Tau (Millipore #MAB361), APP (Millipore #07-667) and Actin (Millipore #MAB1501) were diluted in TBS Tween20 0.05% and 1% BSA. Fluorescent signal was visualized with the VersaDoc™ Imaging System (Bio-Rad Laboratories) and quantified with Quantity One® Analysis Software. Grey levels measured for bands of interest were normalized to the corresponding actin bands.
For assessing the protein Tau's phosphorylation, the culture media of rat cortical neurons were replaced by incubation medium containing purine derivatives at 10 μM (A100) or vehicle (0.1% DMSO; Control). After 18 h incubation p-Tau (Thr212) and total Tau were quantified in the cellular extracts by western-blot.

With `CC[C@H](CO)Nc1nc(N(C)Cc2ccccc2)c2ncn(C(C)C)c2n1` [Aftin-4] as the compound, how does the “Anti-inflammatory Compounds (secreted IL-6)” value (“Anti-inflammatory Compounds” for short) (IL-6 cytokine) read?
Its value is “+(>1 μM) (“+” means that the tested compound shows an anti-inflammatory and/or attenuation of Tau's phosphorylation property with a concentration higher than 1 μM)”.

With `CC[C@H](CO)Nc1nc(N(CC)Cc2ccccc2)c2ncn(C(C)C)c2n1` [Compound 13] as the compound, how does the “Anti-inflammatory Compounds” value (IL-6 cytokine) read?
Its value is “+(>1 μM) (“+” means that the tested compound shows an anti-inflammatory and/or attenuation of Tau's phosphorylation property with a concentration higher than 1 μM)”.

And the “Attenuation of P-Tau/Tau ratio” value (p-Tau (Thr212))?
The value was “+(>1 μM) (“+” means that the tested compound shows an anti-inflammatory and/or attenuation of Tau's phosphorylation property with a concentration higher than 1 μM)”.

Which “Anti-inflammatory Compounds” value (IL-6 cytokine) does the source give for `CC[C@H](CO)Nc1nc(N(C)Cc2ccccc2)c2ncn(C3CCCC3)c2n1` [Compound 14] here?
Its value is “+(>1 μM) (“+” means that the tested compound shows an anti-inflammatory and/or attenuation of Tau's phosphorylation property with a concentration higher than 1 μM)”.

What about the “Attenuation of P-Tau/Tau ratio” value (p-Tau (Thr212)) of the same compound?
The value was “+(>1 μM) (“+” means that the tested compound shows an anti-inflammatory and/or attenuation of Tau's phosphorylation property with a concentration higher than 1 μM)”.

For `CCN(Cc1ccccc1)c1nc(N[C@@H](CO)C(C)C)nc2c1ncn2C1CCCC1` [Compound 15], which “Anti-inflammatory Compounds” value (IL-6 cytokine) is on record?
The value was “+(>1 μM) (“+” means that the tested compound shows an anti-inflammatory and/or attenuation of Tau's phosphorylation property with a concentration higher than 1 μM)”.

What about the “Attenuation of P-Tau/Tau ratio” value (p-Tau (Thr212)) of the same compound?
The value was “+(>1 μM) (“+” means that the tested compound shows an anti-inflammatory and/or attenuation of Tau's phosphorylation property with a concentration higher than 1 μM)”.

Which results are given for `CCCN(Cc1ccccc1)c1nc(N[C@H](CC)CO)nc2c1ncn2C(C)C` [Compound 20]?
Anti-inflammatory Compounds (secreted IL-6) (IL-6 cytokine): +(>1 μM) (“+” means that the tested compound shows an anti-inflammatory and/or attenuation of Tau's phosphorylation property with a concentration higher than 1 μM); Attenuation of P-Tau/Tau ratio (p-Tau (Thr212)): +(>1 μM) (“+” means that the tested compound shows an anti-inflammatory and/or attenuation of Tau's phosphorylation property with a concentration higher than 1 μM)

`CCN(CC)CCNc1nc(N(CC)Cc2ccccc2)c2ncn(C3CCCC3)c2n1` [Compound 22] was tested. Which “Anti-inflammatory Compounds” value (IL-6 cytokine) did it give?
Its value is “+(>1 μM) (“+” means that the tested compound shows an anti-inflammatory and/or attenuation of Tau's phosphorylation property with a concentration higher than 1 μM)”.

What about the “Attenuation of P-Tau/Tau ratio” value (p-Tau (Thr212)) of the same compound?
The value was “+(>1 μM) (“+” means that the tested compound shows an anti-inflammatory and/or attenuation of Tau's phosphorylation property with a concentration higher than 1 μM)”.

`CC[C@@H](CO)Nc1nc(N(C)c2ccccc2)c2ncn(C(C)C)c2n1` [Compound 26] was tested. Which “Anti-inflammatory Compounds” value (IL-6 cytokine) did it give?
Its value is “+(>1 μM) (“+” means that the tested compound shows an anti-inflammatory and/or attenuation of Tau's phosphorylation property with a concentration higher than 1 μM)”.

Which “Anti-inflammatory Compounds” value (IL-6 cytokine) does the source give for `CC[C@H](CO)Nc1nc(OCc2ccccc2)c2ncn(C(C)C)c2n1` [Compound 31] here?
Its value is “+(>1 μM) (“+” means that the tested compound shows an anti-inflammatory and/or attenuation of Tau's phosphorylation property with a concentration higher than 1 μM)”.

What about the “Attenuation of P-Tau/Tau ratio” value (p-Tau (Thr212)) of the same compound?
The value was “+(>1 μM) (“+” means that the tested compound shows an anti-inflammatory and/or attenuation of Tau's phosphorylation property with a concentration higher than 1 μM)”.

Which “Anti-inflammatory Compounds” value (IL-6 cytokine) does the source give for `CC[C@H](CO)Nc1nc(NCc2ccccc2)c2ncn(C(C)C)c2n1` [Roscovitine, (R)-roscovitine, reference compound] here?
The value was “+(>1 μM) (“+” means that the tested compound shows an anti-inflammatory and/or attenuation of Tau's phosphorylation property with a concentration higher than 1 μM)”.
